In US20030203908A1, “Dihydrofolate reductase inhibitors” (priority 2000, published 2003):
Structures can show the parent of a compound that is named as a salt. Where two headings read alike, the source gives them in different places.

Assays:
[1] = molecular target: T1, wild-type (wt) DHFR from Plasmodium falciparum (Plasmodium falciparum, UniProt P13922, N108S/R59C); assay: Inhibition of wild-type pfDHFR (spectrophotometric, Ki); format: biochemical;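 note: Affinity-purified enzyme, initial reaction rates measured across a range of inhibitor concentrations, Ki obtained by nonlinear least-squares fitting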
T1 construct: The Dihydrofolate Reductase Domain of Plasmodium falciparum Thymidylate Synthase-Dihydrofolate Reductase; made in house
T1 sequence (P13922 10-228 R59C/N108S): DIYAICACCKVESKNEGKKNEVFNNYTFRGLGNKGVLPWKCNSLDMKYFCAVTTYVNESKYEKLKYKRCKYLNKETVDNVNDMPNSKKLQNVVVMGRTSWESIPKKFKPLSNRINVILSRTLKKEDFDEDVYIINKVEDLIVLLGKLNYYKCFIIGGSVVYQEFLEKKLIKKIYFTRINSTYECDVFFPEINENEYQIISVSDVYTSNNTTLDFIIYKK
Description: (§1) For determination of the Ki values of a number of synthesized analogues, the assay reactions were initiated with affinity-purified enzyme (^˜0.005-0.01 U ml^−1), and the initial velocities in the presence of varying concentrations of inhibitors were analysed by non-linear least square fit using Kaleidagraph™ software.

[2] = system: A16V.S108T mutant (mut) of DHFR from Plasmodium falciparum; assay: biochemical; details: resistance factor
Description: as §1

[3] = molecular target: T2, A16V.S108T mutant (mut) of DHFR from Plasmodium falciparum (Plasmodium falciparum, UniProt A7UD81, A16V/S108T); assay: biochemical
T2 construct: The Dihydrofolate Reductase Domain of Plasmodium falciparum Thymidylate Synthase-Dihydrofolate Reductase; made in house
T2 sequence (A7UD81 1-231 A16V/S108T): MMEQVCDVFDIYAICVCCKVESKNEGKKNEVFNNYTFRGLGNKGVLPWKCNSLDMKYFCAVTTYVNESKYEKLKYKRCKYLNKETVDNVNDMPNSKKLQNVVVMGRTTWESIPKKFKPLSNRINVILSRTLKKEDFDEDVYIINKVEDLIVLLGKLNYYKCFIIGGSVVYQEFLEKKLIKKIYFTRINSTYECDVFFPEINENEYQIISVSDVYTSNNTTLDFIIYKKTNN
Description: as §1

[4] = system: wild-type (TM4/8.2) strain of P. falciparum; assay: microbe, parasite or virus in culture; format: cell-based, Plasmodium falciparum; details: Plasmodium falciparum; wild-type strain TM4/8.2
Description: Mol. Biochem. Parasitol. […] Science, 1976, 193, 673-675]. In vitro antimalarial activity was determined by using [^3H]-hypoxanthine incorporation method [Desjardins, R. E.; Canfield, C. J.; Haynes, J. D.; Chulay, J. D. Quantitative assessment of antimalarial activity in vitro by a semiautomated microdilution technique. Antimicrob Agents Chemother. 1979, 16, 710-718]. The drugs were initially dissolved in DMSO and diluted with the culture media. Aliquots (25 μl) of drug solution of different concentrations was placed in 96-well plate together with 200 μl of 1.5% cell suspension of parasitized erythrocytes containing 1-2% parasitemia. Final concentration of DMSO was 0.1% where there was no effect on the parasite growth. The mixtures were incubated in a 3% CO2 incubator at 37° C. After 24 h of incubation, 25 μl (0.25 μCi) of [^3H]-hypoxanthine were added to each well. The mixtures were further incubated under the same condition for 18-24 h. DNA of parasites was harvested onto glass filter paper (Unifilter, Packard, USA). The filters were dried and liquid scintillation fluid was added for radioactivity measurement in a 6-probe liquid scintillation-counter (Packard, USA).

[5] = molecular target: T3, DHFR-TS from Trypanosoma cruzi (Trypanosoma cruzi, UniProt Q27793); assay: Inhibition of T. cruzi DHFR-TS (I50-derived Ki);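 for all read-outs here: enzymes were recombinant T. cruzi DHFR-TS and human DHFR, both expressed in E. coli and purified on a methotrexate affinity column, with dihydrofolate and NADPH as substrates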; format: biochemical; details: for Selectivity: human Ki / T. cruzi Ki
T3 construct: pET 11c with the insertion of the complete ORF of the gene tc-dhfrts; made in house; host or cells: E. coli BL21 (DE3)
T3 sequence (Q27793 whole entry): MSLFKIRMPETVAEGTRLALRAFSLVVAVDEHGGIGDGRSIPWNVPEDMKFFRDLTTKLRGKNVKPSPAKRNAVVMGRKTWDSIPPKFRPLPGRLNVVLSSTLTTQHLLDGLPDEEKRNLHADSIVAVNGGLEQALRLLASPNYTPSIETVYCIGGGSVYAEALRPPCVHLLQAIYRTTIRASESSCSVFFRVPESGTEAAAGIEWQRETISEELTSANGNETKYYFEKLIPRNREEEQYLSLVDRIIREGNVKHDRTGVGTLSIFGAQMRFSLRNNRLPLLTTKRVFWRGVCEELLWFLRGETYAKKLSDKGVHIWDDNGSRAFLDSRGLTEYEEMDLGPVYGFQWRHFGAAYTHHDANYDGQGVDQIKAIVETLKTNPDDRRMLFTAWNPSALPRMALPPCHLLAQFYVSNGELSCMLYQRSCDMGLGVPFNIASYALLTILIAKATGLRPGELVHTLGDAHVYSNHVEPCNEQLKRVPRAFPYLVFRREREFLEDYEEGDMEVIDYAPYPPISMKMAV
Description: DHFR activity was measured spectrophotometrically by monitoring the decrease in absorbance at 340 mm.
(§2) Inhibition of dihydrofolate reductases by 1,2-dihydro-1,3,5 triazines was analysed with T. cruzi and human DHFR.
(§3) DHFR assays contained 30 mM dihydrofolate, 0.1 mM NADPH, 50 mM TES buffer pH 7, 75 mM 2-mercaptoethanol and specified amounts of inhibitors. The reaction was initiated by addition of 2.8 or 2.3 units of T. cruzi and human, respectively, and monitored at 340 nm.
Selective inhibition of dihydrofolate reductase by 1,2-dihydro-1,3,5-triazines was analysed with T. cruzi and human DHFR. DHFR assays contained 30 μM dihydrofolate, 0.1 mM NADPH, 50 mM TES buffer pH 7, 75 mM β-mercaptoethanol and specified amounts of inhibitors. The reaction was initiated by addition of 2.8 or 2.3 units of T. cruzi and human enzyme, respectively, and monitored at 340 nm.
KiI 50=[I]0.5/((1+[S])/Km)

[6] = molecular target: T4, human DHFR (Homo sapiens, UniProt P00374); assay: Inhibition of human DHFR (I50-derived Ki); format: biochemical; details: human DHFR;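 note: recombinant human DHFR expressed in E. coli and purified by methotrexate affinity chromatography, enzyme activity followed spectrophotometrically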
T4 construct: made in house; host or cells: E. coli M15
T4 sequence (P00374 1-187): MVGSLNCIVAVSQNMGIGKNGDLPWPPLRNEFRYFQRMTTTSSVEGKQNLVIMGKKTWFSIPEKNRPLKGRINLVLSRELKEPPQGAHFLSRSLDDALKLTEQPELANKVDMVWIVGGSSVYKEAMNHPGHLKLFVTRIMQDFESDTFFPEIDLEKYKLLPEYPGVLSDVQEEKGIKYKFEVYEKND
Description: (§4) Folic acid and NADPH, were purchased from Sigma. Dihydrofolate was prepared from folic acid dithionate reduction. Methotrexate (MTX) was from Lederle Laboratories. MTX sepharose CL-6B was prepared according to the protocol described by Dann. et al. IPTG came from Boehringer Manheim. The expression system used for recombinant human DHFR production, which includes the plasmid PB-E1/RB SII, SphI-HDHFR expressed in E. coli M15, was supplied by Santi, D. V (Department of Biochemistry and Biophysics and Department of Pharmaceutical Chemistry, University of California). Recombinant T. Cruzi DHFR-TS was produced using the system pET 11c with the insertion of the complete ORF of the gene tc-dhfrts. The resulting plasmid was called pET DT.
(§5) Human and T.cruzi DHFR were produced using inducible expression systems. For human DHFR, fresh overnight cultures of E. coli M15, transformed with the plasmid, pB-E1/RB SII, SphI-HDHFR, were grown in LB and 0.1 mg/ml ampicillin medium at 28° C. For T.cruzi DHFR-TS, cultures of E. coli, BL21 (DE3) transformed with the plasmid pETDT system were grown at 37° C. The same purification protocol was used for both systems. When OD600 was at 0.8, cells pellets were collected by centrifugation, suspended in 50 ml of LB medium, containing 0.1 mg/ml of ampicillin. 10 ml of this preinocule was added to 2 litres of LB medium. Cultures were shaken at 28° C. or 37° C. (for human and T. cruzi DHFR respectively) and induction with IPTG ImM was performed when OD600 reached 0.8. After IPTG induction, cells were grown overnight in a shaker at 28° C. or 5 hours at 28° C. or 37° C. (for human and T. cruzi DHFR respectively) and then harvested by centrifugation.
(§6) Cell pellets were suspended in sonication buffer (2× TES DHFR:TES 100 mM, 2-mercaptoethanol 150 mM, EDTA 2 mM pH=7) containing protease inhibitors.
(§7) Crude extract was circulated through the MTX-Sepharose column at 4° C. at a flow rate of 0.2 ml/min until the protein was bound to the resin. The column was washed with an excess of buffer B (KH2PO410 mM pH 7, KC1 1M). Protein was eluted at 0.2 min/ml with an elution buffer (100 mM TES, 10 mM DTT, 2 mM EDTA, DHF 8.5 mM), the elution profile was collected in 1 ml fractions using a Pharmacia LKB Frac 200 collector. Finally, the protein was desalted using molecular size exclusion chromatography in a Pharmacia G-25 column. Fractions containing DHFR activity were pooled and concentrated by ultrafiltration using centripreps Amicon.
(§8) The purity of the protein preparation was assessed by detection of a single band of the correct molecular weight stained with coomasie blue following a 12% SDS-PAGE. Protein concentration was determined by the method of Bradford using a BSA as a standard. DHFR activity was measured spectrophotometrically by monitoring the decrease in absorbance at 340 mm. […] One unit of enzyme, is defined as the amount of enzyme which produces 1 nmol of product per min using ε of 12300M^−1 at 340 nm.
as §2, §3
(§9) Selective inhibition of dihydrofolate reductase by 1,2-dihydro-1,3,5-triazines was analysed with T. cruzi and human DHFR. DHFR assays contained 30 μM dihydrofolate, 0.1 mM NADPH, 50 mM TES buffer pH 7, 75 mM β-mercaptoethanol and specified amounts of inhibitors. The reaction was initiated by addition of 2.8 or 2.3 units of T. cruzi and human enzyme, respectively, and monitored at 340 nm. […] KiI 50=[I]0.5/((1+[S])/Km)

[7] = molecular target: human DHFR; assay: Inhibition of human DHFR (I50-derived Ki); format: biochemical;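 note: recombinant human DHFR expressed in E. coli and purified by methotrexate affinity chromatography, enzyme activity followed spectrophotometrically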
Description: as §4, §5, §6, §7, §8, §2, §3, §9

Row | Structure (SMILES) | Ki ([1]; Ki(wt) nM) | Ki(mut)/Ki(wt) [2] | Ki [3] | IC50 [4] | Ki [5] | also measured
1 | NC1=NC(c2cccc(Oc3ccccc3)c2)N(c2cccc(-c3ccccc3)c2)C(N)=N1 (stereo not drawn) [1-m-biphenyl-2-m-phenoxyphenyl-4,6-diamino-1,2-dihydro-1,3,5-triazine] | 2 nM | 2.2 | 4.8 ± 0.9 nM |  |  | 
2 | COc1ccc(C2N=C(N)N=C(N)N2c2ccc(Cl)cc2)cc1OC (stereo not drawn) [(Ia) R2=3,4-dimethoxyphenyl] | 32.7 ± 2 nM | 3.8 | 124 ± 5 nM | 2270 nM | 386 nM | Selectivity [5]: 67; Ki ([6]; Human Ki (I50)(nM)): 25700 nM
3 | COc1cc(OC)cc(C2N=C(N)N=C(N)N2c2ccc(Cl)cc2)c1 (stereo not drawn) [(Ia) R2=3,5-dimethoxyphenyl] | 38.3 ± 8 nM | 2.6 | 100 ± 7 nM | 3250 nM | 200 nM | Selectivity [5]: 129; Ki ([6]; Human Ki (I50)(nM)): 25800 nM
4 | NC1=NC(c2cccc(Oc3ccc(Cl)cc3)c2)N(c2ccc(Cl)cc2)C(N)=N1 (stereo not drawn) [(Ia) R2=3-(4-chlorophenoxy)phenyl] | 1.4 ± 0.3 nM | 5.3 | 7.5 nM | 2850 nM |  | 
5 | COc1cccc(C2N=C(N)N=C(N)N2c2ccc(Cl)cc2)c1 (stereo not drawn) [(Ia) R2=m-methoxyphenyl] | 10.4 ± 1.4 nM | 6.0 | 62.8 ± 2.4 nM | 577 nM |  | 
6 | N#Cc1ccc(C2N=C(N)N=C(N)N2c2ccc(Cl)cc2)cc1 (stereo not drawn) [(Ia) R2=p-cyanophenyl] | 11.3 ± 1.4 nM |  | 205 ± 22 nM | 804 nM | 650 nM | 
7 | NC1=NC(c2ccc(O)cc2)N(c2ccc(Cl)cc2)C(N)=N1 (stereo not drawn) [(Ia) R2=p-hydroxyphenyl] | 11.3 ± 1.7 nM | 8.6 | 98 ± 10 nM |  |  | 
8 | NC1=NC(c2ccccc2)N(c2ccc(Cl)cc2)C(N)=N1 (stereo not drawn) [(Ia) R2=phenyl, 1-(4′-Chlorophenyl)-2-phenyl-4,6-diamino-1,2-dihydro-1,3,5-triazine hydrochloride] |  |  | 49.3 ± 3.3 nM | 27 nM | 42 nM | Ki ([6]; read-out: Human Ki (I50)): 3870 nM
9 | COc1cc(C2N=C(N)N=C(N)N2c2cccc(Cl)c2)cc(OC)c1OC (stereo not drawn) [(Ib) R2=3,4,5-trimethoxyphenyl] | 960 ± 79 nM | 1.0 | 1010 ± 27 nM | > 50000 nM |  | 
10 | COc1ccc(C2N=C(N)N=C(N)N2c2cccc(Cl)c2)cc1OC (stereo not drawn) [(Ib) R2=3,4-dimethoxyphenyl] | 27.2 ± 2 nM | 6.0 | 164 ± 6 nM | 6820 nM |  | 
11 | COc1cc(OC)cc(C2N=C(N)N=C(N)N2c2cccc(Cl)c2)c1 (stereo not drawn) [(Ib) R2=3,5-dimethoxyphenyl] | 79.4 ± 7 nM | 0.4 | 30.9 ± 3 nM | > 50000 nM |  | 
12 | NC1=NC(c2cccc(Oc3cc(Cl)cc(Cl)c3)c2)N(c2cccc(Cl)c2)C(N)=N1 (stereo not drawn) [(Ib) R2=3-(3,5-dichlorophenoxy)phenyl] | 1.8 ± 0.6 nM | 2.6 | 4.7 ± 0.4 nM | 5470 nM |  | 
13 | NC1=NC(c2cccc(O)c2)N(c2cccc(Cl)c2)C(N)=N1 (stereo not drawn) [(Ib) R2=3-hydroxyphenyl] | 27.9 ± 4.5 nM | 0.7 | 19.7 ± 2.4 nM | 551 nM |  | 
14 | COc1cccc(C2N=C(N)N=C(N)N2c2cccc(Cl)c2)c1 (stereo not drawn) [(Ib) R2=3-methoxyphenyl] | 5.4 ± 0.2 nM | 10.9 | 59.1 ± 6.3 nM | 4370 nM | 240 nM | Selectivity [5]: 5.3; Ki ([6]; Human Ki (I50)(nM)): 1270 nM
15 | NC1=NC(c2ccc(OCc3cc(F)cc(F)c3)cc2)N(c2cccc(Cl)c2)C(N)=N1 (stereo not drawn) [(Ib) R2=4-(3,5-difluorobenzyloxy)phenyl] | 4.4 ± 0.4 nM | 1.7 | 7.4 ± 0.7 nM | 3780 nM |  | 
16 | CCCOc1ccc(C2N=C(N)N=C(N)N2c2cccc(Cl)c2)cc1 (stereo not drawn) [(Ib) R2=4-(n-propyloxy)phenyl] |  |  | 9.3 ± 0.6 nM | 248 nM |  | 
17 | NC1=NC(c2ccc(Br)cc2)N(c2cccc(Cl)c2)C(N)=N1 (stereo not drawn) [(Ib) R2=4-bromophenyl] | 27 ± 4.5 nM | 0.8 | 21.9 ± 2.5 nM | 9100 nM |  | 
18 | COc1ccc(C2N=C(N)N=C(N)N2c2cccc(Cl)c2)cc1 (stereo not drawn) [(Ib) R2=4-methoxyphenyl] | 21.8 ± 1 nM | 0.6 | 12.5 ± 0.9 nM | 2560 nM |  | 
19 | Cl.NC1=NC(c2ccccc2)N(c2cccc(Cl)c2)C(N)=N1 (stereo not drawn) [(Ib) R2=phenyl, 1-(3′-Chlorophenyl)-2-phenyl-4,6-diamino-1,2-dihydro-1,3,5-triazine hydrochloride] | 11.7 ± 2.5 nM | 0.9 | 10 ± 7 nM | 565 nM |  | 
20 | COc1ccc(Oc2cccc(C3N=C(N)N=C(N)N3c3ccc(Cl)c(Cl)c3)c2)cc1 (stereo not drawn) [(Ic) R2=3-(4-methoxyphenoxy)phenyl] | 1.9 ± 0.3 nM | 3.9 | 7.4 ± 0.8 nM | 2930 nM |  | 
21 | NC1=NC(c2cccc(Oc3ccccc3)c2)N(c2ccc(Cl)c(Cl)c2)C(N)=N1 (stereo not drawn) [(Ic) R2=3-phenoxyphenyl] | 1.9 ± 0.3 nM | 2.7 | 5.2 ± 0.6 nM | 330 nM |  | 
22 | NC1=NCN(c2ccc(Cl)c(Cl)c2)C(N)=N1 [(Ic) R2=H] | 5.3 ± 0.7 nM | 8.2 | 43.6 ± 5.8 nM | 123 nM | 36 nM | Selectivity [5]: 1.9; Ki (human)/Ki (T. cruzi) [7]: 0.19
23 | NC1=NC(c2ccccc2)N(c2ccc(Cl)c(Cl)c2)C(N)=N1 (stereo not drawn) [(Ic) R2=Ph, 1-(3′,4′-Dichlorophenyl)-2-phenyl-4,6-diamino-1,2-dihydro-1,3,5-triazine hydrochloride] |  |  |  | 26 nM |  | 
24 | NC1=NC(c2cccc(OCc3ccccc3)c2)N(c2cccc(Cc3ccccc3)c2)C(N)=N1 (stereo not drawn) [R2=3-BnOC6H4, X=H, Y=Bn, 1-m-benzylphenyl-2-m-benzyloxyphenyl-4,6-diamino-1,2-dihydro-1,3,5-triazine] | 2.3 ± 0.3 nM | 3.2 | 7.4 ± 0.9 nM |  | 32 nM | Selectivity [5]: 9.1; Ki ([6]; Human Ki (I50)(nM)): 292 nM; Ki (human)/Ki (P. falc. mut) [7]: 39; Ki (human)/Ki (P. falc. wt) [7]: 127; Ki (human)/Ki (T. cruzi) [7]: 9.1
25 | NC1=NC(c2cccc(OCc3ccccc3)c2)N(c2cccc(OCc3ccccc3)c2)C(N)=N1 (stereo not drawn) [R2=3-BnOC6H4, X=H, Y=BnO, 1-m-benzyloxyphenyl-2-m-benzyloxyphenyl-4,6-diamino-1,2-dihydro-1,3,5-triazine] | 4.3 ± 0.2 nM | 1.7 | 7.2 ± 1 nM |  | 128 nM | Selectivity [5]: 16.6; Ki ([6]; Human Ki (I50)(nM)): 2130 nM
26 | COc1ccc(C2N=C(N)N=C(N)N2c2ccc(F)cc2)cc1 (stereo not drawn) [R2=4-MeOC6H4, X=F, Y=H] |  |  |  |  | 61 nM | Selectivity [5]: 441; Ki ([6]; Human Ki (I50)(nM)): 26900 nM; Ki (human)/Ki (T. cruzi) [7]: 441
27 | NC1=NCN(c2ccc(Br)cc2)C(N)=N1 [R2=H, X=Br, Y=H] |  |  |  |  | 100 nM | Selectivity [5]: 4.8; Ki ([6]; Human Ki (I50)(nM)): 480 nM
28 | Cl.NC1=NCN(c2ccccc2)C(N)=N1 [R=H, X=H, 1-(phenyl)-4,6-diamino-1,2-dihydro-1,3,5-triazine hydrochloride] | 329 ± 27 nM | 1.8 | 585 ± 70 nM |  |  | Ki ([6]; read-out: Human Ki (I50)): 1430 nM; Ki (human)/Ki (P. falc. mut) [7]: 2.44; Ki (human)/Ki (P. falc. wt) [7]: 4.35
29 | CC1(C)N=C(N)N=C(N)N1c1ccc(Cl)cc1 [cycloguanil, Cycloguanil, reference compound] |  |  | 1310 nM | 40 nM |  | Ki ([5]; T. cruzi DHFR-TS, read-out: T. cruzi Ki (I50)): 370 nM; Ki ([1]; read-out: Ki(wt)): 1.5 nM
